For orientation: IC50 means the concentration at which inhibition is half-maximal. For orientation: EC50 means the concentration at which the effect is half-maximal.

The results in this text go back to ChEMBL document CHEMBL5149985, “Discovery of cytotoxic natural products from Red Sea sponges: Structure and synthesis” (Eur J Med Chem, 2021).

The subject of assay [1] is HepG2. The assay is described as follows: Anticancer activity against human HepG2 cells assessed as inhibition of cell growth incubated for 48 hrs by crystal violet staining based microplate reader analysis. The assay is classed as functional. The following applies: HepG2, 48 h.
For assay [2], the system named is P388. The assay is described as follows: Anticancer activity against mouse P388 cells assessed as cell growth inhibition. The format is functional, cell-based.
Assay [3] deals with A549. The assay is described as follows: Anticancer activity against human A549 cells assessed as cell growth inhibition. The assay is classed as functional, cell-based.
For assay [4], the system named is HT-29. The assay is described as follows: Anticancer activity against human HT-29 cells assessed as cell growth inhibition. The assay is classed as functional, cell-based.
The test system of assay [5] is SK-MEL-28. Description: Anticancer activity against human MEL-28 cells assessed as cell growth inhibition. The format is functional, cell-based.
For assay [6], the system named is HCT-116. The assay is described as follows: Anticancer activity against human HCT-116 cells assessed as inhibition of cell growth by MTS assay. The format is functional, cell-based. In general terms: Tetrazolium dyes change colour on reduction, which living cells bring about.
For assay [7], the system named is MCF7. Description: Anticancer activity against human MCF7 cells assessed as inhibition of cell growth incubated for 24 hrs by MTT assay. The format is functional, cell-based. Particulars: MCF7, 24 h.
Assay [8] deals with A549. Description: Anticancer activity against human A549 cells assessed as inhibition of cell growth incubated for 24 hrs by MTT assay. The assay is classed as functional, cell-based. The following applies: A549, 24 h.
Assay [9] concerns HeLa. Description: Anticancer activity against human HeLa cells assessed as inhibition of cell growth incubated for 24 hrs by MTT assay. The format is functional, cell-based.
The subject of assay [10] is A549. Description: cells. Particulars: Homo sapiens, A549, 72 h.
Description: Anticancer activity against human A549 cells assessed as inhibition of cell growth measured after 72 hrs by SRB assay
In assay [11] the test system is MDA-MB-231. The assay is described as follows: cells. The following applies: Homo sapiens, MDA-MB-231, 72 h.
Description: Anticancer activity against human MDA-MB-231 cells assessed as inhibition of cell growth measured after 72 hrs by SRB assay
For assay [12], the system named is HT-29. The assay is described as follows: cells. Particulars: Homo sapiens, HT-29, 72 h.
Description: Anticancer activity against human HT-29 cells assessed as inhibition of cell growth measured after 72 hrs by SRB assay
The test system of assay [13] is HT-29. Description: Anticancer activity against human HT-29 cells assessed as cell growth inhibition by crystal violet staining based assay. The assay is classed as functional.
Assay [14] concerns OVCAR-3. Description: Anticancer activity against human OVCAR-3 cells assessed as cell growth inhibition by crystal violet staining based assay. The format is functional.
The subject of assay [15] is MM1.S. Description: Anticancer activity against human MM1.S cells assessed as cell growth inhibition by MTT assay. The assay is classed as functional, cell-based.
Assay [16] deals with P388. The assay is described as follows: Anticancer activity against mouse p-388 cells assessed as cell growth inhibition incubated for 3 days. The assay is classed as functional, cell-based. Particulars: P388, 72 h.
In assay [17] the test system is HeLa. Description: Antiproliferative activity against human HeLa cells assessed as cell viability measured after 24 hrs by MTT assay. The assay is classed as functional, cell-based.
A short description of assay [18]: Antiproliferative activity against mouse Pheochromocytoma cells(MPC) assessed as reduction in relative cell viability at 25 uM incubated for 24 hrs by proliferation assay relative to control. The assay is classed as functional.
Assay [19] in a line: Antiproliferative activity against mouse Pheochromocytoma cells(MTT) assessed as reduction in relative cell viability at 25 uM incubated for 24 hrs by proliferation assay. The format is functional.
Assay [20] is described as follows: Antiproliferative activity against mouse Pheochromocytoma cells(MPC) assessed as reduction in relative cell viability at 50 uM incubated for 24 hrs by proliferation assay relative to control. The assay is classed as functional.
A short description of assay [21]: Antiproliferative activity against mouse Pheochromocytoma cells(MTT) assessed as reduction in relative cell viability at 50 uM incubated for 24 hrs by proliferation assay. The assay is classed as functional.
Assay [22] is described as follows: Antiproliferative activity against mouse Pheochromocytoma cells(MTT) assessed as reduction in relative cell viability incubated for 24 hrs by proliferation assay. The assay is classed as functional, cell-based.
In assay [23] the test system is BT-474. Description: Anticancer activity against human BT-474 cells assessed as cell growth inhibition incubated for 48 hrs by MTT assay. The assay is classed as functional, cell-based. The following applies: BT-474, 48 h.
Assay [24] deals with MDA-MB-231. Description: Anticancer activity against human MDA-MB-231 cells assessed as cell growth inhibition incubated for 48 hrs by MTT assay. The assay is classed as functional, cell-based. The following applies: MDA-MB-231, 48 h.
Assay [25] relates to MCF7. The assay is described as follows: Anticancer activity against human MCF7 cells assessed as cell growth inhibition incubated for 48 hrs by MTT assay. The assay is classed as functional, cell-based. Particulars: MCF7, 48 h.
The subject of assay [26] is SK-BR-3. Description: Anticancer activity against human SK-BR-3 cells assessed as cell growth inhibition incubated for 48 hrs by MTT assay. The format is functional, cell-based. Particulars: SK-BR-3, 48 h.
Assay [27] has as its system T47D. The assay is described as follows: Anticancer activity against human T47D cells assessed as cell growth inhibition incubated for 48 hrs by MTT assay. The format is functional, cell-based.

In the case of `CC(C)[C@]1(O)CC[C@@]2(C)C[C@](O)([C@H]3CC[C@@H]4[C@]3(C)CC[C@H]3OC(C)(C)[C@H](O)C(=O)[C@@H](O)[C@]43C)CC[C@@H]21`, the IC50 in assay [1] was found to be 0.023 µM.

With `C=C1CCC[C@@H]2[C@@](C)(CC[C@@]3(C)CCn4cnc5ncnc(c54)N3O)[C@H](C)CC[C@@]12C`, the IC50 in [2], in [3], in [4] and in assay [5] was 1.18 µM in each case.

As for `CO[C@H]1C[C@H](CC[C@H](C)[C@H](O)[C@H](C)[C@H]2OC(=O)/C=C/C(C)=C/C[C@@H](O)C[C@H]3C=CC[C@@H](C[C@H](OC)[C@@H](C)[C@@H](O)C[C@@H](O)[C@H](C)[C@@H]([C@@H](C)[C@@H](O)[C@@H](C)CC[C@H]4C[C@H](OC)C[C@H](C)O4)OC(=O)/C(C)=C/C[C@H](O)C[C@@H]4C=CC[C@@H](C[C@H](OC)[C@@H](C)[C@@H](O)C[C@@H](O)[C@@H]2C)O4)O3)O[C@@H](C)C1`, the IC50 in assay [6] came to 0.365 µM.

Consider `C#C/C=C\CCCCCCCCCCC#CCCC(=O)NCCc1c[nH]c2ccccc12`, for which the IC50 in [7] is 34.1 µM; in [8], 25.9 µM; in assay [9] it was 17.4 µM.

With `C=C1CCC[C@@H]2[C@@](C)(CC[C@@]3(C)CCn4cnc5ncnc(c54)N3O)[C@H](C)CC[C@]12C`, the IC50 came to 0.24 µM in [2], 0.12 µM in [3], 0.12 µM in assay [4] and 0.24 µM in assay [5].

On to `COc1cccc2c1C(=O)c1c(O)c3c(c(O)c1C2=O)C[C@@](O)(C(=O)CO)C[C@@H]3O[C@H]1C[C@H](N)[C@H](O)[C@H](C)O1` [DOXORUBICIN], for which the IC50 in assay [10] turned out to be 0.35 µM; in assay [11], 0.3 µM; in [12], 0.4 µM.

As for `O=C1Nc2ccc(Br)cc2[C@@]1(c1cc2ccccc2[nH]1)c1c[nH]c2ccccc12`, the results for the concentration for half-maximal inhibition (IC50) in assay [13], in [14] and in assay [15] were 8 µM, 7 µM and 9 µM, respectively.

As for `CC[C@H]1CCCC[C@@]2(C[C@@H]3CC[C@@H]4[C@H](C(=O)OCCCCCCCCCCCCCCCC(=O)N(CCCN)CCCCN)[C@]5(CCC[C@@H](C)O5)NC(=[N+]34)N2)O1`, in [16], the IC50 is 0.1 mg/L.

For the compound `COC1=C(Br)[C@H](O)[C@@]2(C=C1Br)CC(C(=O)NCCCCNC(=O)C1=NO[C@]3(C=C(Br)C(OC)=C(Br)[C@@H]3O)C1)=NO2` [AEROTHIONIN], the half-maximal inhibitory concentration (IC50) in assay [17] was found to be 29 µM. In addition, the Activity in assay [18] is 83.7%; in assay [19], 82.8%; in assay [20], 55.1%; in [21], 48.3%. Also, in [22], the EC50 was 48.1 µM.

In the case of `CO[C@@H]1C[C@H](C)O[C@@H](C(O)C[C@H](C)[C@H](O)[C@H](C)[C@H]2OC(=O)/C=C/C(C)=C/C[C@H](O)C[C@H]3C=CC[C@@H](C[C@H](OC)[C@@H](C)[C@@H](O)C[C@@H](O)[C@H](C)[C@@H]([C@@H](C)[C@@H](O)[C@@H](C)CC[C@H]4C[C@H](OC)C[C@H](C)O4)OC(=O)/C=C/C(C)=C/C[C@H](O)C[C@@H]4C=CC[C@@H](C[C@H](OC)[C@@H](C)[C@@H](O)C[C@@H](O)[C@@H]2C)O4)O3)C1` (some centres not stated), in assay [6], the IC50 was 0.0056 µM.

For `O[C@]12CCCCCC[C@@H]3CCN4CCC[C@](O)(CCCCCC[C@@H]5CCN(CCC1)[C@H]2O5)[C@@H]4O3`, the concentration for half-maximal inhibition (IC50) is 15.2 µM in assay [23]; 15.2 µM in assay [24]; 8.5 µM in assay [25]; 18.3 µM in assay [26]; 46.1 µM in [27].
